Reference: patent publication US7022648B2, “Plant seeds treated with N,N′-substituted ureas” (Stoller Enterprises, Inc., priority 1996, dated 2006)
Values joined by “and” are separate entries in the source; they are usually repeats but may differ in a detail not shown here. Identical values can stand only once.

Legend:
Assay type in all cases: in vivo
Corn [1] = assay: Greenhouse pot test, effect of diformylurea concentration applied to seeds; details: seed treated, 24 h soak, 30 days; for Roots (gm), Average / Shoots (gm), Average / Total (gm), Average: average of samples; for Roots (gm) / Shoots (gm) / Total (gm): single sample (pot)
Description: (§1) Additional experiments were designed to study further the effect of the concentration of diformylurea applied to the seeds of several other crops. These experiments were conducted using cotton, rice, corn and soybeans. These experiments were similar to the preliminary experiments described above. The concentrate described above, containing both diformylurea and formate, was used to prepare solutions containing low, medium and high concentrations of diformylurea having, respectively, 0.001 M, 0.01 M and 0.05 M diformylurea. These solutions were used to treat the seeds of cotton, rice, corn and soybeans. Seeds of each of these crops were soaked in water or the prepared aqueous solutions of diformylurea for 24 hours before planting. Five seeds were planted in each of six, 1 gallon greenhouse pots. Pots were thinned to two plants after germination and the plants watered and fertilized as needed for 30 days. Thereafter, the plants were harvested and the mass of the roots, shoots and total mass determined.

Rice [2] = assay: as above; details: seed treated, 24 h soak, 30 days; for Roots (gm), Average / Shoots (gm), Average / Total (gm), Average: average of samples
Description: as §1

Cotton = assay: as above; details: seed treated, 24 h soak, 30 days; for Roots (gm), Average / Shoots (gm), Average / Total (gm), Average: average of samples
Description: as §1

Corn [3] = assay: Greenhouse pot test, foliar treatment 0.01 M diformylurea; details: foliar treated, three leaf stage, 30 days
Description: (§2) Based upon the foregoing preliminary work, additional experiments to investigate the effect of diformylurea on other plant species was undertaken. These experiments were also designed to compare the effect of treating seeds as described above with foliar treatment. Wheat, corn and peanuts were selected for the next phase of this work. Diformylurea was prepared by reacting formic acid and urea at a molar ratio of 2:1 as described above. An aqueous solution containing diformylurea at a concentration of 0.01 M was prepared. For the seed treatment portion of the experiments, the seeds to be treated were soaked in the foregoing solution for about 24 hours before planting. The control seeds were again soaked in water for the same time. Both control and treated seeds were planted in 1 gallon greenhouse pots. Five seeds were planted in each pot. Each pot was thinned to two plants after germination. For the foliar treatment portion of the experiment, plants grown from untreated seeds were sprayed with a solution containing 0.01 M. diformylurea at the three leaf stage. All plants were watered and fertilized as required. Thirty days after planting, the plants were harvested and the roots and shoots examined. The mass of both the roots and shoots and the total mass of the plant in each pot were determined.

Wheat = assay: as above; details: foliar treated, three leaf stage, 30 days
Description: as §2

Peanuts = assay: as above; details: foliar treated, three leaf stage, 30 days
Description: as §2

Rice [4] = assay: Single application to rice at tillering, yield; details: 50 grams per acre at tillering
From the text: The reaction products of the present invention, specifically N,N′-diformylurea, have been used to enhance the growth of plants. […] For example, a single application to rice at the rate of 50 grams per acre at tillering has produced a 25 percent increase in yield.

O=CNC(=O)NC=O [diformylurea, N,N′-diformylurea]
Percent Change v. Control, Roots (Corn [1]; 0.001 M): 2%
Percent Change v. Control, Shoots (Corn [1]; 0.001 M): 5%
Percent Change v. Control, Total (Corn [1]; 0.001 M): 3%
Root/Shoot Ratio (Corn [1]; 0.001 M): 1.04
Roots (gm), Average (Corn [1]; 0.001 M): 19.65 gm
Shoots (gm), Average (Corn [1]; 0.001 M): 18.85 gm
Total (gm), Average (Corn [1]; 0.001 M): 38.50 gm
Roots (gm) (Corn [1]; 0.001 M): 18.90 gm and 17.20 gm and 27.00 gm and 19.10 gm and 18.10 gm and 17.60 gm
Shoots (gm) (Corn [1]; 0.001 M): 21.10 gm and 14.00 gm and 17.60 gm and 22.00 gm and 18.90 gm and 19.50 gm
Total (gm) (Corn [1]; 0.001 M): 40.00 gm and 31.20 gm and 44.60 gm and 41.10 gm and 37.00 gm and 37.10 gm
Percent Change v. Control, Roots (Corn [1]; 0.01 M): 9%
Percent Change v. Control, Shoots (Corn [1]; 0.01 M): 7%
Percent Change v. Control, Total (Corn [1]; 0.01 M): 8%
Root/Shoot Ratio (Corn [1]; 0.01 M): 1.09
Roots (gm), Average (Corn [1]; 0.01 M): 20.92 gm
Shoots (gm), Average (Corn [1]; 0.01 M): 19.17 gm
Total (gm), Average (Corn [1]; 0.01 M): 40.09 gm
Roots (gm) (Corn [1]; 0.01 M): 16.20 gm and 25.10 gm and 24.10 gm and 20.00 gm and 15.30 gm and 24.80 gm
Shoots (gm) (Corn [1]; 0.01 M): 18.60 gm and 22.10 gm and 23.00 gm and 16.60 gm and 15.50 gm and 19.70 gm
Total (gm) (Corn [1]; 0.01 M): 34.80 gm and 47.20 gm and 47.10 gm and 36.60 gm and 30.80 gm and 44.50 gm
Percent Change v. Control, Roots (Corn [1]; 0.05 M): 0%
Percent Change v. Control, Shoots (Corn [1]; 0.05 M): −2%
Percent Change v. Control, Total (Corn [1]; 0.05 M): −1%
Root/Shoot Ratio (Corn [1]; 0.05 M): 1.09
Roots (gm), Average (Corn [1]; 0.05 M): 19.20 gm
Shoots (gm), Average (Corn [1]; 0.05 M): 17.62 gm
Total (gm), Average (Corn [1]; 0.05 M): 36.82 gm
Roots (gm) (Corn [1]; 0.05 M): 17.90 gm and 20.40 gm and 17.80 gm and 21.20 gm and 18.70 gm
Shoots (gm) (Corn [1]; 0.05 M): 17.40 gm and 20.60 gm and 15.90 gm and 18.40 gm and 15.80 gm
Total (gm) (Corn [1]; 0.05 M): 35.30 gm and 41.00 gm and 33.70 gm and 39.60 gm and 34.50 gm
Percent Change v. Control, Roots (Rice [2]; 0.001 M): 37%
Percent Change v. Control, Shoots (Rice [2]; 0.001 M): 42%
Percent Change v. Control, Total (Rice [2]; 0.001 M): 39%
Root/Shoot Ratio (Rice [2]; 0.001 M): 1.79
Roots (gm), Average (Rice [2]; 0.001 M): 0.61 gm
Shoots (gm), Average (Rice [2]; 0.001 M): 0.34 gm
Total (gm), Average (Rice [2]; 0.001 M): 0.95 gm
Percent Change v. Control, Roots (Rice [2]; 0.01 M): 13%
Percent Change v. Control, Shoots (Rice [2]; 0.01 M): 29%
Percent Change v. Control, Total (Rice [2]; 0.01 M): 19%
Root/Shoot Ratio (Rice [2]; 0.01 M): 1.67
Roots (gm), Average (Rice [2]; 0.01 M): 0.51 gm
Shoots (gm), Average (Rice [2]; 0.01 M): 0.31 gm
Total (gm), Average (Rice [2]; 0.01 M): 0.82 gm
Percent Change v. Control, Roots (Rice [2]; 0.05 M): 82%
Percent Change v. Control, Shoots (Rice [2]; 0.05 M): 63%
Percent Change v. Control, Total (Rice [2]; 0.05 M): 76%
Root/Shoot Ratio (Rice [2]; 0.05 M): 2.13
Roots (gm), Average (Rice [2]; 0.05 M): 0.82 gm
Shoots (gm), Average (Rice [2]; 0.05 M): 0.39 gm
Total (gm), Average (Rice [2]; 0.05 M): 1.21 gm
Percent Change v. Control, Roots (Cotton; 0.001 M): 159%
Percent Change v. Control, Shoots (Cotton; 0.001 M): 18%
Percent Change v. Control, Total (Cotton; 0.001 M): 74%
Root/Shoot Ratio (Cotton; 0.001 M): 1.46
Roots (gm), Average (Cotton; 0.001 M): 7.85 gm
Shoots (gm), Average (Cotton; 0.001 M): 5.38 gm
Total (gm), Average (Cotton; 0.001 M): 13.23 gm
Shoots (gm) (Cotton; 0.001 M, single sample (pot)): 4.80 gm and 4.40 gm and 6.20 gm and 5.50 gm and 5.70 gm
Total (gm) (Cotton; 0.001 M, single sample (pot)): 8.60 gm and 12.40 gm and 16.20 gm and 14.70 gm and 12.60 gm and 14.90 gm
Percent Change v. Control, Roots (Cotton; 0.01 M): 49%
Percent Change v. Control, Shoots (Cotton; 0.01 M): 15%
Percent Change v. Control, Total (Cotton; 0.01 M): 28%
Root/Shoot Ratio (Cotton; 0.01 M): 0.86
Roots (gm), Average (Cotton; 0.01 M): 4.50 gm
Shoots (gm), Average (Cotton; 0.01 M): 5.25 gm
Total (gm), Average (Cotton; 0.01 M): 9.75 gm
Shoots (gm) (Cotton; 0.01 M, single sample (pot)): 4.00 gm and 6.00 gm and 4.90 gm and 7.20 gm and 4.80 gm and 4.60 gm
Percent Change v. Control, Roots (Cotton; 0.05 M): 67%
Percent Change v. Control, Shoots (Cotton; 0.05 M): 29%
Percent Change v. Control, Total (Cotton; 0.05 M): 44%
Root/Shoot Ratio (Cotton; 0.05 M): 0.86
Roots (gm), Average (Cotton; 0.05 M): 5.07 gm
Shoots (gm), Average (Cotton; 0.05 M): 5.90 gm
Total (gm), Average (Cotton; 0.05 M): 10.97 gm
Roots (gm) (Cotton; 0.05 M, single sample (pot)): 4.30 gm and 6.00 gm and 4.20 gm and 4.60 gm and 4.70 gm and 6.60 gm
Shoots (gm) (Cotton; 0.05 M, single sample (pot)): 4.70 gm and 5.00 gm and 6.40 gm and 5.40 gm and 6.90 gm and 7.00 gm
Total (gm) (Cotton; 0.05 M, single sample (pot)): 9.00 gm and 11.00 gm and 10.60 gm and 10.80 gm and 11.60 gm and 13.60 gm
Percent Change v. Control, Roots (Corn [3]): 11%
Percent Change v. Control, Shoots (Corn [3]): 103%
Percent Change v. Control, Total (Corn [3]): 46%
Root/Shoot Ratio (Corn [3]): 0.90
Roots (gm), Average (Corn [3]; average of samples): 51.38 gm
Shoots (gm), Average (Corn [3]; average of samples): 57.31 gm
Total (gm), Average (Corn [3]; average of samples): 108.69 gm
Roots (gm) (Corn [3]; single sample (pot)): 42.40 gm and 48.44 gm and 52.48 gm and 56.22 gm and 42.18 gm and 66.57 gm
Shoots (gm) (Corn [3]; single sample (pot)): 61.80 gm and 46.17 gm and 50.59 gm and 61.12 gm and 67.57 gm and 56.61 gm
Total (gm) (Corn [3]; single sample (pot)): 104.20 gm and 84.61 gm and 103.07 gm and 117.34 gm and 109.75 gm and 123.18 gm
Percent Change v. Control, Roots (Wheat): 14%
Percent Change v. Control, Shoots (Wheat): 108%
Percent Change v. Control, Total (Wheat): 26%
Root/Shoot Ratio (Wheat): 4.06
Roots (gm), Average (Wheat; average of samples): 23.93 gm
Shoots (gm), Average (Wheat; average of samples): 5.89 gm
Total (gm), Average (Wheat; average of samples): 29.83 gm
Shoots (gm) (Wheat; single sample (pot)): 7.48 gm and 7.53 gm and 4.44 gm and 4.62 gm and 4.00 gm and 7.28 gm
Percent Change v. Control, Roots (Peanuts): 92%
Percent Change v. Control, Shoots (Peanuts): 108%
Percent Change v. Control, Total (Peanuts): 100%
Root/Shoot Ratio (Peanuts): 1.02
Roots (gm), Average (Peanuts; average of samples): 32.74 gm
Shoots (gm), Average (Peanuts; average of samples): 32.15 gm
Total (gm), Average (Peanuts; average of samples): 64.89 gm
Roots (gm) (Peanuts; single sample (pot)): 27.67 gm and 35.04 gm and 37.38 gm and 31.10 gm and 31.69 gm and 33.55 gm
Shoots (gm) (Peanuts; single sample (pot)): 28.38 gm and 30.34 gm and 33.84 gm and 32.35 gm and 36.17 gm and 31.82 gm
Total (gm) (Peanuts; single sample (pot)): 56.05 gm and 65.38 gm and 71.22 gm and 63.45 gm and 67.86 gm and 65.37 gm
increase in yield (Rice [4]): 25%
